Where two headings read alike, the source gives them in different places.
Tests used:
p38γ [1] = biological target: T1, p38γ (Homo sapiens, UniProt P53778); parameters: method as in PMID 29758280; conditions: read-out: experimental IC50 on p38γ; cited from earlier work
T1 construct: purchased Promega
T1 sequence (P53778 1-367): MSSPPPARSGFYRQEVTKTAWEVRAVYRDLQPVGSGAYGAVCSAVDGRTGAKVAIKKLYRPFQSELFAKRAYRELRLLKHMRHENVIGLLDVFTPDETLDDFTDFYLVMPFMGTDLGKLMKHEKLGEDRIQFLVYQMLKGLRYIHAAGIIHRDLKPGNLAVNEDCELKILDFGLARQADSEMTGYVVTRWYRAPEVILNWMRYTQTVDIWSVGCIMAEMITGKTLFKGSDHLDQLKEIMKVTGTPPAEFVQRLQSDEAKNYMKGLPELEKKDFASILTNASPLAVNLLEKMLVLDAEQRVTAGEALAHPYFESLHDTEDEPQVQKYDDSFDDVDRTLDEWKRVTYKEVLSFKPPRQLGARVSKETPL

p38γ [2] = biological target: T1, p38γ; assay: p38γ kinase enzyme system with ADP-Glo kinase assay; type: biochemical
Experimental: The inhibitory assay of p38γ was performed using the p38γ kinase enzyme system (Promega, Madison, WI, USA) with the ADP-Glo™ kinase assay kit (Promega, Madison, WI, USA). The kinase reactions were conducted in a total assay volume of 5 μL in a white 384-well plate. The kinase reaction mixture per well was composed using the reaction buffer supplemented with 50μM DTT and contained 50 ng p38γ, 1μg p38 substrate, 50 μM ATP, and the tested compound at the specified concentrations. Positive control wells receive 5% DMSO instead of 1 μL of the compound solution, and negative control wells are without both compound and enzyme in the reaction. After incubation of the plates at room temperature for 60 min, the reaction was stopped with 5 μL of ADP-Glo™ reagent for 40 min. Next, 10 µL of kinase detection reagent was added and incubated for another 30 min to convert the ADP to ATP. The ATP was then detected by measuring the luminescence using a Victor Nivo multimode microplate reader (PerkinElmer, Waltham, MA, USA) in an integration time of 1 s per well. The relative kinase activity was calculated as follows: p38γ kinase activity %=Lumenescence of compound−luminescence of negative control /Lumenescence of positive control−luminescence of negative control ×100%
(§1) All data were collected from triplicate experiments and presented as the mean ± standard deviation of the mean. Data were analyzed using Graph Prism v9.0.0.121. One sample t test was used to calculate the statistical significance of the differences. p < 0.05 was considered statistically significant. The four-parameter dose-response curves and IC50 values were determined by a non-linear regression curve fitting method.

Huh7 cells = assay: CCK-8 cytotoxicity assay, Huh7; type: cell-based, human
Experimental: (§2) The compounds were tested for HCC cell lines using the Cell Counting Kit-8 (CCK-8) (Absin, Shanghai, China). The human HCC cell lines Huh7 and HepG2 were cultured in high-glucose Dulbecco’s modified Eagle’s medium (DMEM) supplemented with 10% fetal bovine serum (FBS), 1% penicillin, and 1% penicillin/streptomycin at 37 °C with 5% CO2. Huh7 and HepG2 cells were seeded into white 96-well plates at 3 × 10^3 cells per well in 100 μL suspension and pre-incubated overnight. The cells were then treated with different compound concentrations and incubated for 48 h. Control wells just contained cell suspension, while blank wells were added with complete media. The effects on proliferation were determined by the addition of 10 µL CCK-8 reagent, followed by incubation for 1 h. Finally, the absorbance of the reaction was measured at 450 nm using a Victor Nivo Multimode Microplate Reader. Cell viability was calculated as follows: Cell viability%= experimental well absorbance−blank well absorbance /control well absorbance−blank well absorbance ×100%
as §1

HepG2 cells = assay: CCK-8 cytotoxicity assay, HepG2; type: cell-based, human
Experimental: as §2, §1

reduction of p38γ activity (p38γ [2]; 1 μM) | reduction of p38γ activity (p38γ [2]; 10 μM) | reduction of p38γ activity (p38γ [2]; 100 μM) | IC50 (p38γ [2]; 12-point four-fold dilution from 100 μM, 50 μM ATP) | Structure (SMILES) | IC50 (p38γ [1]) | effect on viability of Huh7 cells (Huh7 cells; 1 µM, 48 h) | effect on HCC cell growth (Huh7) (Huh7 cells; 10 and 100 µM, 48 h) | IC50 (Huh7 cells; Homo sapiens, Huh-7, 48 h treatment) | effect on viability of HepG2 cells (HepG2 cells; 1 µM, 48 h) | effect on HCC cell growth (HepG2) (HepG2 cells; 10 and 100 µM, 48 h) | IC50 (HepG2 cells; Homo sapiens, HepG2, 48 h treatment)
– | – | – | – | Cc1ccc(=O)n(-c2ccccc2)c1 [pirfenidone] | > 125 µM | – | – | – | – | – | –
72.43% | 93.12% | 96.18% | 16.8 nM | O=C(C1CC(=O)N(C2CCS(=O)(=O)C2)C1)N1CCC(c2c[nH]c3ncccc23)CC1 (centres unmarked) [compound 2, 1-(1,1-dioxothiolan-3-yl)-4-[4-(1H-pyrrolo [2,3-b]pyridin-3-yl)piperidine-1-carbonyl]pyrrolidin-2-one] | – | no effect | potent inhibitory effects | 11.9 µM | no effect | potent inhibitory effects | 19.2 µM
